Measured values reported in patent US6821326B2 (Arch Chemicals, Inc., priority 2002, dated 2004).

Legend:
[1] = rats, powder, compared with zinc pyrithione powder; cited from earlier work
[2] = Particle size analysis on a Horiba Laser light scattering particle size analyzer; type: physicochemical; conditions: commercial powder before low shear mixing into xylene dispersion (Comparative Example A)
Procedure: As a comparison to the dispersions of the present invention, 13 grams “LAROFLEX MP25” polymer resin (vinyl chloride-isobutyl vinyl ether copolymer, a product of BASF Corporation, Charlotte, N.C.) was dissolved into 832 grams of xylene. […] The mixture was stirred at low speed (1000 rpm) and with low shear for 0.5 hours to provide adequate mixing until a homogenous mixture was achieved.
The diluted sample was then run though a Mini Zeta Netzsch mill for 150 minutes at 2000 rpm.

SMILES: On1ccccc1=S.On1ccccc1=S.[Cu] [Copper Pyrithione, copper pyrithione]
- acute inhalation toxicity [1]: more toxic than zinc pyrithione powder
- Mean Particle Size [2]: 3.09 Microns
- Median Particle Size [2]: 3.40 Microns
